Source: PMC5642494 (Oncotarget, 2017)
Where two headings read alike, the source gives them in different places.

Tests used:
pRb (Ser780) = assay: High content imaging of Rb phosphorylation (Ser780), MCF7; assay type: cell-based; settings: Homo sapiens, mean ± Stdev n = 2
Method: (§1) Relative IC50/EC50 values were determined by curve fitting to a four parameter logistic equation: Y = bottom + ((top-bottom)/ (1+exp(HillSlope*(X – LnIC50)), where X is the natural log of dose/concentration, Y is response, decreasing as X increases, top and bottom are plateaus in the same units as Y, lnIC50 is the natural log of potency, in the same log units as X, and HillSlope measures the steepness of the curve. Data were plotted using GraphPad Prism.
As controls, cells were treated with 10 µM palbociclib or vehicle ( 0.2 % v/v DMSO). Additional details for cell-based assays are provided in the Supplemental Methods. […]
www.impactjournals.com/oncotarget/ Oncotarget Supplementary Materials
(§2) Preclinical characterization of abemaciclib in hormone receptor […]
METHODS High content imaging cell-based assays for monitoring phosphorylation of Rb (ser780), G1 arrest and
Enzyme kinetics of CDK6/cyclin D3 complexes Cells were fixed with para-formaldehyde and Rb phosphorylation at Serine 780 was detected using CDK6/cyclin D3 activity was measured by the a primary mouse anti-Rb (PS780) antibody followed phosphorylation of CTRF using [g-33P] […] Plates were read in an kinase buffer containing 68 mM Hepes at pH 7.5, 6.67 mM Acumen Explorer eX3 (TTP Labtech). […]
(§3) (EDTA) was used to determine the level of background evaluated by measuring PI signal using high content 33P in the absence of enzyme activity. […]

MCF7 cells = assay: PI high content imaging of G1 arrest and cell proliferation, MCF7; assay type: cell-based; settings: Homo sapiens
Method: as §1, with “Prism. […]” for “Prism.”
as §2
METHODS High content imaging cell-based assays for monitoring phosphorylation of Rb (ser780), G1 arrest and […]
ATP at 20°C by a secondary goat anti-mouse IgG-Alexa Fluor 488 in a 96-well plate filtration assay format. […] Plates were read in an kinase buffer containing 68 mM Hepes at pH 7.5, 6.67 mM Acumen Explorer eX3 (TTP Labtech). […] 10µL of CDK6/cyclin corresponding to 500-530 nm and the percentage of D3 enzyme complex (Millipore 14-519, #D13BP009NA) cells with pRb signal relative to the total PI stained (1 nM final concentration in the assay) was added onto subpopulation was calculated by the instrument’s software a mix of substrate and test compound. […]
as §3

[1] = tested on: MCF7, MDA-MB-361 and EFM-19 cells; assay: Cell morphology by bright field microscopy; assay type: cell-based, human; settings: 0.5 µM, 3 DT
Method: (A–D) Cells were treated with 0.2% DMSO (A MDA-
3 DT and side scatter (SSC) analysis was carried out using flow cytometry and analyzed with FlowJo X software.

Q: `CCN1CCN(Cc2ccc(Nc3ncc(F)c(-c4cc(F)c5nc(C)n(C(C)C)c5c4)n3)nc2)CC1` [abemaciclib, Abemaciclib] was tested. Which IC50 (pRb (Ser780)) did it give?
A: The IC50 was 13 ± 2 nM.

Q: And the IC50 (MCF7 cells; n = 2, read-out: IC50 2n (G1 arrest))?
A: Its IC50 is 54 ± 16 nM.

Q: What about the IC50 (MCF7 cells; n = 2, read-out: IC50 Cell number) of the same molecule?
A: The IC50 was 369 ± 370 nM.

Q: What about the cell morphology [1] of the same molecule?
A: Its cell morphology is “larger and flatter compared to vehicle-treated cells”.
